In assay [1] the target is T1, Nav1.7 (Homo sapiens, UniProt Q15858).
T1 construct: permanently transfected with an expression vector containing the full-length cDNA coding for the desired human sodium channel α-subunit; expressed in transfected cells
The assay is described as follows: Patch voltage clamp electrophysiology assay, block of the inactivated state of Nav1.7. The settings on record: affinity for the inactivated state, HEK-293 cells stably expressing human Nav1.7 with β1 subunit, held at -60 mV. The class given is cell-based. How it is done:
(§1) The following patch voltage clamp electrophysiology studies were performed on representative compounds of the invention using human embryonic kidney cells (HEK), permanently transfected with an expression vector containing the full-length cDNA coding for the desired human sodium channel α-subunit, grown in culture media containing 10% FBS, 1% PSG, and 0.5 mg/mL G418 at 37 °C with 5% CO2. […] Nav1.7 and Nav1.5 cDNAs (NM_002977 and AC137587; SCN5A, respectively) were stably expressed in HEK-293 cells. The β1 subunit was coexpressed only in the Nav1.7 cell line.
Sodium currents were measured using the patch clamp technique in the whole-cell configuration using either a PatchXpress automated voltage clamp or manually using an Axopatch 200B (Axon Instruments) or Model 2400 (A-M systems) amplifier. […] The pipette was filled with a solution comprised of: 5 mM NaCl, 10 mM CsCl, 120 mM CsF, 0.1 mM CaCl2, 2 mM MgCl2, 10 mM HEPES, 10 mM EGTA; and adjusted to pH 7.2 with CsOH. The external solution had the following composition: 140 mM NaCl, 5 mM KCI, 2 mM CaCl2, 1 mM MgCl2, 10 mM HEPES; and adjusted to pH 7.4 with NaOH. In some studies, the external sodium was reduced by equimolar replacement with choline. Osmolarity in the CsF internal and NaCl external solutions was adjusted to 300 mOsm/kg and 310 mOsm/kg with glucose, respectively. All recordings were performed at ambient temperature in a bath chamber with a volume of 150 µL. Control sodium currents were measured in 0.5% DMSO. Controls and representative compounds of the invention were applied to the recording chamber through a 4-pinch or 8-pinch valve bath perfusion system manufactured by ALA Scientific Instruments.
Series resistance compensation was applied (60-80%). […] All statistics in this study are given as mean ± SD.
The membrane potential was maintained at a voltage where inactivation of the channel is complete (which was -60 mV for both Nav1.7 and Nav1.5). The voltage is then stepped back to a very negative (Vhold = -150mV) voltage for 20 ms and then a test pulse is applied to quantify the compound block. […] The percent decrease in sodium current following wash-on of compound was taken as the percent block of sodium channels.
The Example numbers provided in Table 1 and Table 2 correspond to the Examples herein.

The target of assay [2] is T2, Nav1.5 (Homo sapiens, UniProt Q14524).
T2 construct: permanently transfected with an expression vector containing the full-length cDNA coding for the desired human sodium channel α-subunit; expressed in transfected cells
T2 sequence (Q14524 whole entry): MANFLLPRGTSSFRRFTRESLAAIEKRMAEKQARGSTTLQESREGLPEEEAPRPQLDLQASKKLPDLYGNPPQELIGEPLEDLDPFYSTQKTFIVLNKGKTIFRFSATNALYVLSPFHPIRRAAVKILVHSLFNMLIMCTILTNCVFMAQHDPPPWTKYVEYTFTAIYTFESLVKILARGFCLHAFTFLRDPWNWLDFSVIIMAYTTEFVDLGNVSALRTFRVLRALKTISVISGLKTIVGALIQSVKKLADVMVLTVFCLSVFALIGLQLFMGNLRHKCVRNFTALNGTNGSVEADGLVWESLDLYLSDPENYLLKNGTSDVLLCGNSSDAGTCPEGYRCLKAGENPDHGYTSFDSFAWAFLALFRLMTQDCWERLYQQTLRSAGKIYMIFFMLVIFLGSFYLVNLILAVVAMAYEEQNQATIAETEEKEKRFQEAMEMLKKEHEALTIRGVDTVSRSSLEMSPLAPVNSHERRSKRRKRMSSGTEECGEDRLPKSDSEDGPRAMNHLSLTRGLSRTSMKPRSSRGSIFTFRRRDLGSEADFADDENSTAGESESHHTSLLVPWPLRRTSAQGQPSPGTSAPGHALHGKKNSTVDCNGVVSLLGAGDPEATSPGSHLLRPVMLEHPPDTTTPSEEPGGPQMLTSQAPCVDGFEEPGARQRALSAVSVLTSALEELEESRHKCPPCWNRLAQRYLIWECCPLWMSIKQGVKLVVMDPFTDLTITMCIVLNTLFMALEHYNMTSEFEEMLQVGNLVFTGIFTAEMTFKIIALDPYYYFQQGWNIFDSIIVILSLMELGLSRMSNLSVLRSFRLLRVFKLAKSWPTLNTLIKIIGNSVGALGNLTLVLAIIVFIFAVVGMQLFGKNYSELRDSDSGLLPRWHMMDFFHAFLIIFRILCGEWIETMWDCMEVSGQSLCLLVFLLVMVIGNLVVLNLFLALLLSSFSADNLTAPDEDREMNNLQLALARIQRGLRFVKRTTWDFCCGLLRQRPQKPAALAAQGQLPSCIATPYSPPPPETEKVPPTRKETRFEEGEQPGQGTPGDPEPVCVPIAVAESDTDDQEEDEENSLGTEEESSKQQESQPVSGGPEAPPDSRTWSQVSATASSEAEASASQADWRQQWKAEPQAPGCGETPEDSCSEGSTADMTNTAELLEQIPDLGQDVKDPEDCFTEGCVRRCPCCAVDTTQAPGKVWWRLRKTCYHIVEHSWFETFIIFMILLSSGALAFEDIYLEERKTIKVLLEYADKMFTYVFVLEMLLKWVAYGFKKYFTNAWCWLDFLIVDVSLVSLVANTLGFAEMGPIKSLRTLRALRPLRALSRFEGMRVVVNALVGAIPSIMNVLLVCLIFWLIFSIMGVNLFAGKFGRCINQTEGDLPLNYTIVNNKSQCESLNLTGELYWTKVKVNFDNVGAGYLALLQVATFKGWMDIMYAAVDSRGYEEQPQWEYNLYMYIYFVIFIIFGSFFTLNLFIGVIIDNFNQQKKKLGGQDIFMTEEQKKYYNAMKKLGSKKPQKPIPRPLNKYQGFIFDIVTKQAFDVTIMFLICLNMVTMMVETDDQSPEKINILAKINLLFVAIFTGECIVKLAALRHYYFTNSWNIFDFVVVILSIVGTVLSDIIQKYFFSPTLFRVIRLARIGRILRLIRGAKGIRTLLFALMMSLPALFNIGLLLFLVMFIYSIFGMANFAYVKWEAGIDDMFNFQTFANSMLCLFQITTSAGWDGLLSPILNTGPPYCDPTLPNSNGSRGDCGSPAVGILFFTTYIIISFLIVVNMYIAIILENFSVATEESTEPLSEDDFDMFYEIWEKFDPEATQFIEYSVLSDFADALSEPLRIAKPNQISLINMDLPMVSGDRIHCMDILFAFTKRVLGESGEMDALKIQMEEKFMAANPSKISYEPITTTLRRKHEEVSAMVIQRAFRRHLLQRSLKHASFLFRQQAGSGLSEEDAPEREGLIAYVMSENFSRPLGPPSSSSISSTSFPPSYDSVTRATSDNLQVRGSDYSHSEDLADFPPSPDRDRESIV
In words: Patch voltage clamp electrophysiology assay, block of the inactivated state of Nav1.5. The class given is cell-based. The settings on record: IC50 class; affinity for the inactivated state; HEK-293 cells stably expressing human Nav1.5; held at -60 mV. The procedure:
Patch voltage clamp electrophysiology allows for the direct measurement and quantification of block of voltage-gated sodium channels (Nav's), and allows the determination of the time- and voltage-dependence of block which has been interpreted as differential binding to the resting, open, and inactivated states of the sodium channel (Hille, B., Journal of General Physiology (1977), 69: 497-515).
as §1
Sodium currents were measured using the patch clamp technique in the whole-cell configuration using either a PatchXpress automated voltage clamp or manually using an Axopatch 200B (Axon Instruments) or Model 2400 (A-M systems) amplifier. The manual voltage clamp protocol was as follows: Borosilicate glass micropipettes were fire-polished to a tip diameter yielding a resistance of 2-4 Mohms in the working solutions. The pipette was filled with a solution comprised of: 5 mM NaCl, 10 mM CsCl, 120 mM CsF, 0.1 mM CaCl2, 2 mM MgCl2, 10 mM HEPES, 10 mM EGTA; and adjusted to pH 7.2 with CsOH. The external solution had the following composition: 140 mM NaCl, 5 mM KCI, 2 mM CaCl2, 1 mM MgCl2, 10 mM HEPES; and adjusted to pH 7.4 with NaOH. In some studies, the external sodium was reduced by equimolar replacement with choline. Osmolarity in the CsF internal and NaCl external solutions was adjusted to 300 mOsm/kg and 310 mOsm/kg with glucose, respectively. All recordings were performed at ambient temperature in a bath chamber with a volume of 150 µL. Control sodium currents were measured in 0.5% DMSO. Controls and representative compounds of the invention were applied to the recording chamber through a 4-pinch or 8-pinch valve bath perfusion system manufactured by ALA Scientific Instruments.
Currents were recorded at 40 kHz sampling frequency, filtered at […], and stored using a Digidata-1322A analogue/digital interface with the pClamp software (Axon Instruments). Series resistance compensation was applied (60-80%). […] All statistics in this study are given as mean ± SD.
The membrane potential was maintained at a voltage where inactivation of the channel is complete (which was -60 mV for both Nav1.7 and Nav1.5). The voltage is then stepped back to a very negative (Vhold = -150mV) voltage for 20 ms and then a test pulse is applied to quantify the compound block. The 20 ms brief repolarization was long enough for compound-free channels to completely recover from fast inactivation, but the compound-bound channels recovered more slowly such that negligible recovery could occur during this interval. The percent decrease in sodium current following wash-on of compound was taken as the percent block of sodium channels.
The Example numbers provided in Table 1 and Table 2 correspond to the Examples herein. TABLE 1: Inhibition of Nav1.7

Where two headings read alike, the source gives them in different places.

Our source for the IC50 values is patent publication EP2773641B1, “BIARYL ETHER SULFONAMIDES AND THEIR USE AS THERAPEUTIC AGENTS” (Xenon Pharmaceuticals Inc., priority 2011, dated 2013).

T1 sequence (Q15858 1-1977 isoform Q15858-3): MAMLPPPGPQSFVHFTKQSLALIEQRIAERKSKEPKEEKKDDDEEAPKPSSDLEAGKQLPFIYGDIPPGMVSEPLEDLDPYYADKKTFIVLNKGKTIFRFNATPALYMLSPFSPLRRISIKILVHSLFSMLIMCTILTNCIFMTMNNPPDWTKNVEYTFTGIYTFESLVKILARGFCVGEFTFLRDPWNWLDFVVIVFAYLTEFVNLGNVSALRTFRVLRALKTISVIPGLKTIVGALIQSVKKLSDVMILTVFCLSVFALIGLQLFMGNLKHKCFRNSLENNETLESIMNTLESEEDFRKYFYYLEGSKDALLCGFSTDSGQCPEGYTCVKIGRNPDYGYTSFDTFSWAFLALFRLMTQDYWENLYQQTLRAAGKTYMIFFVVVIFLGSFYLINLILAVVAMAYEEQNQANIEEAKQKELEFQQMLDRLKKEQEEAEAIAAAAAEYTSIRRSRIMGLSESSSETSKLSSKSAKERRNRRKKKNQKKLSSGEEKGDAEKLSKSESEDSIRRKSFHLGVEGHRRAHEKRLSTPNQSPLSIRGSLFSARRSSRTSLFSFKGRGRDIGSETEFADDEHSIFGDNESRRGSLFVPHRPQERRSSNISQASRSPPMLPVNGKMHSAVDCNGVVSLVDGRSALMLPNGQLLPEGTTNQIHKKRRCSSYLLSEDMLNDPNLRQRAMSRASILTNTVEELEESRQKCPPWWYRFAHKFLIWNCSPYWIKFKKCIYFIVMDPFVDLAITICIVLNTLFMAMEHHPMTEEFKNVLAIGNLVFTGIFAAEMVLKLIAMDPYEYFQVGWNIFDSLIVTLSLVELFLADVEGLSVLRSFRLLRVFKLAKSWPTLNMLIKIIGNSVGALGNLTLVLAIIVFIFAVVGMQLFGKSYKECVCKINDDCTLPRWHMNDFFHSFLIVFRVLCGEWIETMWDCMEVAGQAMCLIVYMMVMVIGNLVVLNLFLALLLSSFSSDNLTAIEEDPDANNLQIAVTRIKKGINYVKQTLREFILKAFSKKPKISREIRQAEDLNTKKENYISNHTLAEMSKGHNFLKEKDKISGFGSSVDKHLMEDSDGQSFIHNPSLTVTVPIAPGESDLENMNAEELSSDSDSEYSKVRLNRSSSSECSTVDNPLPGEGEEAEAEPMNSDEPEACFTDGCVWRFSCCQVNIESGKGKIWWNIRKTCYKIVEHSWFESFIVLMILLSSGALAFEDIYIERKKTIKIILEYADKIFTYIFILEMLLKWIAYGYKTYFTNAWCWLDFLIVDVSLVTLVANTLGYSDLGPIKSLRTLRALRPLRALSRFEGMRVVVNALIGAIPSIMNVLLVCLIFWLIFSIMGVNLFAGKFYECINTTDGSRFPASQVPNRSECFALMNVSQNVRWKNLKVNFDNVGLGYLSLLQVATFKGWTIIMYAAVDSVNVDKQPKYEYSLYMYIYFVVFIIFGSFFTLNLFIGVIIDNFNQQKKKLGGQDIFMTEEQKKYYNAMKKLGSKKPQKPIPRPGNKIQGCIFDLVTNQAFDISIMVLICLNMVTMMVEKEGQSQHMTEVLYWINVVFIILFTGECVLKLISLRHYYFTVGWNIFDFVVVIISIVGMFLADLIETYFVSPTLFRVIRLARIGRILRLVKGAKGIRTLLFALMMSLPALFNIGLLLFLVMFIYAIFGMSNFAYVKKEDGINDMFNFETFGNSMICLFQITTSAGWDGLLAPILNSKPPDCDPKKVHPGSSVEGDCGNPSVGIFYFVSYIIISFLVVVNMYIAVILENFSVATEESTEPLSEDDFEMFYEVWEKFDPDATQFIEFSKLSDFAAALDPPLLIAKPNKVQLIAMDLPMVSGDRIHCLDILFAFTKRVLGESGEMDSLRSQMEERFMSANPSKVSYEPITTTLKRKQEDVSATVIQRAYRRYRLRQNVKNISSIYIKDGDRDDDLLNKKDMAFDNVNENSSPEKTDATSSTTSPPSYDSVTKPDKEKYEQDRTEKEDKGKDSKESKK
T1 sequence (Q07699 19-218 partner): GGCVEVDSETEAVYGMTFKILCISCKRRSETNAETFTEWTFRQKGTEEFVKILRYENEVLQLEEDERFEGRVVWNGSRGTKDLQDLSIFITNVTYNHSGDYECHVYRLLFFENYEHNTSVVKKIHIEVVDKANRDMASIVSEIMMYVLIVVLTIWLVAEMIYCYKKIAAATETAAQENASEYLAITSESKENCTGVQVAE

Turning to `Nc1nc2cc(-c3cc(Cl)ccc3Oc3cc(F)c(S(=O)(=O)Nc4ncns4)cc3F)ccc2[nH]1` [Example 38, 4-(2-(2-amino-1H-benzo[d]imidazol-5-yl)-4-chlorophenoxy)-2,5-difluoro-N-(1,2,4-thiadiazol-5-yl)benzenesulfonamide], the values for the IC50 in assay [1] (read-out: Nav1.7 IC50) and in assay [2] were 0.0003 µM and over 10 µM, respectively.

Take `CN(c1ncns1)S(=O)(=O)c1cc(F)c(Oc2ccc(Cl)cc2-c2ccc3[nH]c(N)nc3c2)cc1F` [Example 41, 4-(2-(2-amino-1H-benzo[d]imidazol-5-yl)-4-chlorophenoxy)-2,5-difluoro-N-methyl-N-(1,2,4-thiadiazol-5-yl)benzenesulfonamide]: the IC50 is 0.1 to 1 µM in assay [1] (IC50 class, read-out: Nav1.7); 0.0678 µM in assay [1] (read-out: Nav1.7 IC50); 1 to 10 µM in assay [2].

For the compound `O=S(=O)(Nc1ncns1)c1cc(F)c(Oc2ccc(Cl)cc2-c2cccc3nccn23)cc1F` [Example 30, 4-(4-chloro-2-(imidazo[1,2-a]pyridin-5-yl)phenoxy)-2,5-difluoro-N-(1,2,4-thiadiazol-5-yl)benzenesulfonamide], the values for the IC50 in assay [1] (read-out: Nav1.7 IC50) and in assay [2] were 0.0134 µM and over 10 µM, respectively. Consider `O=C1Cc2cc(-c3cc(Cl)ccc3Oc3cc(F)c(S(=O)(=O)Nc4ncns4)cc3F)ccc2N1` [Example 77, 4-(4-chloro-2-(2-oxoindolin-5-yl)phenoxy)-2,5-difluoro-N-(1,2,4-thiadiazol-5-yl)benzenesulfonamide], for which the IC50 in assay [1] (read-out: Nav1.7 IC50) amounted to 0.0074 µM.

With `O=C1Cc2ccc(-c3cc(Cl)ccc3Oc3cc(F)c(S(=O)(=O)Nc4ncns4)cc3F)cc2N1` [Example 55, 4-(4-chloro-2-(2-oxoindolin-6-yl)phenoxy)-2,5-difluoro-N-(1,2,4-thiadiazol-5-yl)benzenesulfonamide], the IC50 in assay [1] (read-out: Nav1.7 IC50) was 0.001 µM. Take `O=c1[nH]cc(-c2cc(Cl)ccc2Oc2cc(F)c(S(=O)(=O)Nc3ncns3)cc2F)n2cncc12` [Example 35, 4-(4-chloro-2-(8-oxo-7,8-dihydroimidazo[1,5-a]pyrazin-5-yl)phenoxy)-2,5-difluoro-N-(1,2,4-thiadiazol-5-yl)benzenesulfonamide]: in assay [1] (read-out: Nav1.7 IC50), the IC50 came to 0.675 µM.

Consider `Nc1noc2ccc(-c3cc(Cl)ccc3Oc3cc(F)c(S(=O)(=O)Nc4ncns4)cc3F)cc12` [Example 44, 4-(2-(3-aminobenzo[d]isoxazol-5-yl)-4-chlorophenoxy)-2,5-difluoro-N-(1,2,4-thiadiazol-5-yl)benzenesulfonamide], for which the results for the IC50 in assay [1] (read-out: Nav1.7 IC50) and in assay [2] were 0.0006 µM and 1 to 10 µM, respectively. Regarding `O=S(=O)(Nc1ncns1)c1cc(F)c(Oc2ccc(Cl)cc2-c2ccnc3nccn23)cc1F` [Example 31, 4-(4-chloro-2-(imidazo[1,2-a]pyrimidin-5-yl)phenoxy)-2,5-difluoro-N-(1,2,4-thiadiazol-5-yl)benzenesulfonamide], the IC50 in assay [1] (read-out: Nav1.7 IC50) was 0.008 µM; in assay [2], over 10 µM. `Cn1cnc2c(-c3cc(Cl)ccc3Oc3cc(F)c(S(=O)(=O)Nc4ncns4)cc3F)ncnc21` [Example 39, 4-(4-chloro-2-(9-methyl-9H-purin-6-yl)phenoxy)-2,5-difluoro-N-(1,2,4-thiadiazol-5-yl)benzenesulfonamide]: the IC50 in assay [1] (read-out: Nav1.7 IC50) worked out at 2.38 µM.
